# Source: US9687479B2, “Multisubstituted aromatic compounds as serine protease inhibitors” (VERSEON CORPORATION, priority 2013, dated 2017)
# pIC50: −log10 of the molar value.
# Target: Human thrombin (Homo sapiens (Human), UniProt P00734)
# Assay: Thrombin protease activity inhibition assay (chromogenic substrate S-2238)
# Type: biochemical
# Conditions: 3 nM thrombin, 125 μM S-2238, 10 min pre-incubation, RT
# Procedure, shortened: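 Ten-point, three-fold serial dilutions of compound tested against 3 nM enzyme at RT in Tris buffer (0.05 M, pH 7.4) with 0.015 M NaCl and 0.01% PEG-8000.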
row,Compound,pIC50
1,"O=C(c1ccccc1N1CCOCC1)n1nc(-c2ccc[nH]c2=O)cc1NCc1ccc(Cl)s1 [Cmpd 205, 3-(5-[(5-chlorothiophen-2-yl)methyl]amino-1-[2-(morpholin-4-yl)phenyl]carbonyl-1H-pyrazol-3-yl)-1,2-dihydropyridin-2-one]",5.00 to 6.00
2,"CC(C)(C)C(=O)n1nc(-c2cccn(Cc3ccc(Cl)s3)c2=O)cc1NCc1ccc(Cl)s1 [Cmpd 39, 1-[(5-chlorothiophen-2-yl)methyl]-3-(5-[(5-chlorothiophen-2-yl)methyl]amino-1-(2,2-dimethylpropanoyl)-1H-pyrazol-3-yl)-1,2-dihydropyridin-2-one]",> 7.00
3,"O=C(c1ccoc1)n1nc(-c2cccn(Cc3ccc(Cl)s3)c2=O)cc1NCc1ccc(Cl)s1 [Cmpd 41, 1-[(5-chlorothiophen-2-yl)methyl]-3-(5-[(5-chlorothiophen-2-yl)methyl]amino-1-[(furan-3-yl)carbonyl]-1H-pyrazol-3-yl)-1,2-dihydropyridin-2-one]",> 7.00
4,"CC(C)(C)C(=O)n1nc(-c2cccn(CCN3CCOCC3)c2=O)cc1NCc1ccc(Cl)s1 [Cmpd 89, 3-(5-[(5-chlorothiophen-2-yl)methyl]amino-1-(2,2-dimethylpropanoyl)-1H-pyrazol-3-yl)-1-[2-(morpholin-4-yl)ethyl]-1,2-dihydropyridin-2-one]",> 7.00
5,"CC(C)(CO)C(=O)n1nc(-c2cccn(Cc3cccs3)c2=O)cc1NCc1ccc(Cl)s1 [Cmpd 95, 3-(5-[(5-chlorothiophen-2-yl)methyl]amino-1-(3-hydroxy-2,2-dimethylpropanoyl)-1H-pyrazol-3-yl)-1-(thiophen-2-ylmethyl)-1,2-dihydropyridin-2-one]",> 7.00
6,"CC(C)(C)C(=O)n1nc(-c2cccn(Cc3ccsc3)c2=O)cc1NCc1ccc(Cl)s1 [Cmpd 87, 3-(5-[(5-chlorothiophen-2-yl)methyl]amino-1-(2,2-dimethylpropanoyl)-1H-pyrazol-3-yl)-1-(thiophen-3-ylmethyl)-1,2-dihydropyridin-2-one]",> 7.00
7,"COc1ccccc1C(=O)n1nc(-c2cccn(Cc3ccccc3)c2=O)cc1NCc1ccc(Cl)s1 [Cmpd 47, 1-benzyl-3-(5-[(5-chlorothiophen-2-yl)methyl]amino-1-[(2-methoxyphenyl)carbonyl]-1H-pyrazol-3-yl)-1,2-dihydropyridin-2-one]",> 7.00
8,"O=c1c(-c2cc(NCc3ccc(Cl)s3)[nH]n2)cccn1Cc1ccccc1Cl [Cmpd 30, 1-[(2-chlorophenyl)methyl]-3-(5-[(5-chlorothiophen-2-yl)methyl]amino-1H-pyrazol-3-yl)-1,2-dihydropyridin-2-one]",4.00 to 5.00
9,"CC(C)(C)C(=O)n1nc(-c2cccn(Cc3cccc(Cl)c3)c2=O)cc1NCc1ccc(Cl)s1 [Cmpd 31, 1-[(3-chlorophenyl)methyl]-3-(5-[(5-chlorothiophen-2-yl)methyl]amino-1-(2,2-dimethylpropanoyl)-1H-pyrazol-3-yl)-1,2-dihydropyridin-2-one]",> 7.00
10,"O=C(c1ccccc1Cl)n1nc(-c2cccn(Cc3cccs3)c2=O)cc1NCc1ccc(Cl)s1 [Cmpd 250, 3-1-[(2-chlorophenyl)carbonyl]-5-[(5-chlorothiophen-2-yl)methyl]amino-1H-pyrazol-3-yl-1-(thiophen-2-ylmethyl)-1,2-dihydropyridin-2-one]",> 7.00
11,"CC(C)(C)C(=O)n1nc(-c2cccn(Cc3ccc4ccccc4c3)c2=O)cc1NCc1ccc(Cl)s1 [Cmpd 80, 3-(5-[(5-chlorothiophen-2-yl)methyl]amino-1-(2,2-dimethylpropanoyl)-1H-pyrazol-3-yl)-1-(naphthalen-2-ylmethyl)-1,2-dihydropyridin-2-one]",> 7.00
12,"O=C(c1cccc2c1OCCO2)n1nc(-c2cccn(Cc3ccccc3)c2=O)cc1NCc1ccc(Cl)s1 [Cmpd 45, 1-benzyl-3-(5-[(5-chlorothiophen-2-yl)methyl]amino-1-[(2,3-dihydro-1,4-benzodioxin-5-yl)carbonyl]-1H-pyrazol-3-yl)-1,2-dihydropyridin-2-one]",> 7.00
13,"COc1ccccc1C(=O)n1nc(-c2cccn(Cc3ccc(Cl)s3)c2=O)cc1NCc1ccc(Cl)s1 [Cmpd 40, 1-[(5-chlorothiophen-2-yl)methyl]-3-(5-[(5-chlorothiophen-2-yl)methyl]amino-1-[(2-methoxyphenyl)carbonyl]-1H-pyrazol-3-yl)-1,2-dihydropyridin-2-one]",> 7.00
14,"O=C(c1cccc2c1OCCO2)n1nc(-c2cccn(CCN3CCOCC3)c2=O)cc1NCc1ccc(Cl)s1 [Cmpd 119, 3-(5-[(5-chlorothiophen-2-yl)methyl]amino-1-[(2,3-dihydro-1,4-benzodioxin-5-yl)carbonyl]-1H-pyrazol-3-yl)-1-[2-(morpholin-4-yl)ethyl]-1,2-dihydropyridin-2-one]",> 7.00
15,"O=c1c(-c2cc(NCc3ccc(Cl)s3)[nH]n2)cccn1Cc1nnn[nH]1 [Cmpd 219, 3-(5-[(5-chlorothiophen-2-yl)methyl]amino-1H-pyrazol-3-yl)-1-(1H-1,2,3,4-tetrazol-5-ylmethyl)-1,2-dihydropyridin-2-one]",4.00 to 5.00
16,"CC1(C(=O)n2nc(-c3cccn(Cc4ccccn4)c3=O)cc2NCc2ccc(Cl)s2)CCOCC1 [Cmpd 153, 3-(5-[(5-chlorothiophen-2-yl)methyl]amino-1-[(4-methyloxan-4-yl)carbonyl]-1H-pyrazol-3-yl)-1-(pyridin-2-ylmethyl)-1,2-dihydropyridin-2-one]",> 7.00
17,"O=C(c1ccoc1)n1nc(-c2cccn(Cc3ccc4ccccc4c3)c2=O)cc1NCc1ccc(Cl)s1 [Cmpd 175, 3-(5-[(5-chlorothiophen-2-yl)methyl]amino-1-[(furan-3-yl)carbonyl]-1H-pyrazol-3-yl)-1-(naphthalen-2-ylmethyl)-1,2-dihydropyridin-2-one]",> 7.00
18,"O=C(c1ccoc1)n1nc(-c2cccn(Cc3cccnn3)c2=O)cc1NCc1ccc(Cl)s1 [Cmpd 176, 3-(5-[(5-chlorothiophen-2-yl)methyl]amino-1-[(furan-3-yl)carbonyl]-1H-pyrazol-3-yl)-1-(pyridazin-3-ylmethyl)-1,2-dihydropyridin-2-one]",> 7.00
19,"O=c1c(-c2cc(NCc3ccc(Cl)s3)[nH]n2)cccn1Cc1ccc(Cl)cc1 [Cmpd 38, 1-[(4-chlorophenyl)methyl]-3-(5-[(5-chlorothiophen-2-yl)methyl]amino-1H-pyrazol-3-yl)-1,2-dihydropyridin-2-one]",< 4.00
20,"O=C(c1ccsc1)n1nc(-c2ccc[nH]c2=O)cc1NCc1ccc(Cl)s1 [Cmpd 193, 3-(5-[(5-chlorothiophen-2-yl)methyl]amino-1-[(thiophen-3-yl)carbonyl]-1H-pyrazol-3-yl)-1,2-dihydropyridin-2-one]",> 7.00
21,"O=C(c1cccs1)n1nc(-c2cccn(CCN3CCOCC3)c2=O)cc1NCc1ccc(Cl)s1 [Cmpd 192, 3-(5-[(5-chlorothiophen-2-yl)methyl]amino-1-[(thiophen-2-yl)carbonyl]-1H-pyrazol-3-yl)-1-[2-(morpholin-4-yl)ethyl]-1,2-dihydropyridin-2-one]",< 4.00
22,"O=C(c1ccccc1)n1nc(-c2cccn(Cc3cccs3)c2=O)cc1NCc1ccc(Cl)s1 [Cmpd 70, 3-(1-benzoyl-5-[(5-chlorothiophen-2-yl)methyl]amino-1H-pyrazol-3-yl)-1-(thiophen-2-ylmethyl)-1,2-dihydropyridin-2-one]",> 7.00
